The target in this test is T1, Orexin receptor type 2 (Homo sapiens, UniProt O43614).
T1 sequence (O43614 whole entry): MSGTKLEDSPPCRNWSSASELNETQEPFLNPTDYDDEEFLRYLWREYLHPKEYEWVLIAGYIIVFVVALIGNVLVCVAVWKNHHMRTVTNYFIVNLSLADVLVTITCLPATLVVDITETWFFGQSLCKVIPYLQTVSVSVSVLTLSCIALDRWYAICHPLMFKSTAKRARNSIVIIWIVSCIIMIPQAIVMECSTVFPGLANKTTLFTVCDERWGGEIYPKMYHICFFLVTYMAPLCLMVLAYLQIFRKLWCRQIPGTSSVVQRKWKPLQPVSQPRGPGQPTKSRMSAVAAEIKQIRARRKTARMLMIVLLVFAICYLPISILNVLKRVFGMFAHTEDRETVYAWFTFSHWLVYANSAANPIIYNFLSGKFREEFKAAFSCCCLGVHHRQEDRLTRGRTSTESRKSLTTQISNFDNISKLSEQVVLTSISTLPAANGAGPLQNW
Description: FLIPR Ca2+ Flux Assay: FLIPR Ca2+ Flux Assay- (Okumura et al., Biochem. Biophys. Res. Comm. 280:976-981, 2001). In a typical experiment the OX1 and OX2 receptor antagonistic activity of the compounds of the present invention was determined in accordance with the following experimental method. For intracellular calcium measurements, Chinese hamster ovary (CHO) cells expressing the rat orexin-1 receptor or the human orexin-2 receptor, are grown in Iscove's modified DMEM containing 2 mM L-glutamine, […], 1% hypoxanthine-thymidine supplement, 100 U/ml penicillin, 100 μg/ml streptomycin and 10% heat-inactivated fetal calf serum (FCS). The cells are seeded at 20,000 cells/well into Becton-Dickinson black 384-well clear bottom sterile plates coated with poly-D-lysine. All reagents were from GIBCO-Invitrogen Corp. The seeded plates are incubated overnight at […]. and 5% CO2. Ala-6,12 human orexin-A as the agonist is prepared as a 1 mM stock solution in 1% bovine serum albumin (BSA) and diluted in assay buffer (HBSS containing 20 mM HEPES, 0.1% BSA and 2.5 mM probenecid, pH7.4) for use in the assay at a final concentration of 70 pM. Test compounds are prepared as 10 mM stock solution in DMSO, then diluted in 384-well plates, first in DMSO, then assay buffer. […]. The format is cell-based. A general note: A change in cytosolic calcium serves as a functional read-out for many receptors and channels.

Broadly, the IC50 is the concentration needed to halve the response being measured.

SMILES strings stand for the structures.

Consider `CC(=O)N(c1cc(C#N)ccn1)[C@@H]1CC[C@@H](C)N(C(=O)c2ccccc2-n2nccn2)C1`, for which the IC50 was 1780 nM.

These data come from ChEMBL document CHEMBL5726126, “2-pyridylamino-4-nitrile-piperidinyl orexin receptor antagonists” (2017).
